This assay can be described thus: Comparison of blood glucose lowering with glibenclamide. To be noted: data not shown. It counts as in vivo.

Structures are written as SMILES.

As to `COc1ccc(Cl)cc1C(=O)NCCc1ccc(S(=O)(=O)NC(=O)NC2CCCCC2)cc1` [glibenclamide], the “blood glucose lowering activity compared with EH-36” value is recorded as “comparable blood glucose lowering activities” and the “onset of the effect compared with EH-36” value is reported as “faster”.

(Values after PMC3822934 (Journal of Cellular and Molecular Medicine, 2012).)
